Molecules are shown by their SMILES.

Data set [1] in a line: In vitro drug release assay from polymeric paste (RP-HPLC-UV). Type of data set: physicochemical. To be noted: for drug released by day 50: PEG:PLGA 63:37 and PEG:PLGA:Diblock 50:37:13 pastes, 1% docetaxel, 4% enzalutamide, FIG. 12A, 12B; for drug released by day 7: 8% w/w lidocaine. The method, then:
The drug-loaded paste can be aliquoted for in vitro release studies. Paste (50-100 mg) is deposited at the bottom of a test tube and release medium is added (5-10 mL, sink conditions). Release medium is phosphate buffered saline (PBS, 10 mM, pH 7.4)) or PBS containing 1% Albumin. The test tubes are kept in a 37° C. incubator until the end of the study. Release samples are taken at appropriate time points by replacing the complete release medium (supernatant) and analyzing it for total drug using Reversed phase high-performance liquid chromatography with ultraviolet (UV) detection (RP-HPLC-UV).

Data set [2] is described as follows: Kidney pelvis injection of gemcitabine paste. It counts as in vivo, pigs. To be noted: 5% gemcitabine in sodium hyaluronate containing paste, pig kidney pelvis. The method, then: After placement of a ureteral catheter, three pigs received an injection of 1-2 mL of polymeric paste into the kidney pelvis. After removal of the ureteral catheter, a urinary catheter was placed and urine collected for 3 h intervals over 24 h. Blood was collected from an ear vein over 24 h and gemcitabine concentrations were determined using ultra high performance liquid chromatography tandem mass spectrometry (UHPLC-MS/MS).
The drug gemcitabine was incorporated at 5% (m/m) in the sodium hyaluronate containing paste. This paste was injected through the 5 F catheter into the kidney pelvis of a pig.

A short description of data set [3]: Local delivery of lidocaine paste subcutaneously in rats, serum lidocaine. Type of data set: in vivo. To be noted: for maximum serum concentration: subcutaneous, rats. The method, then: Five groups of rats (male, Sprague Dawley™) with six animals in each group received one injection of paste formulation (0.1 mL) subcutaneously in their flank. The paste formulation was based on a 50:50 mixture of PEG 300™ and PLGA. Lidocaine was incorporated into the paste at 80, 100, 120, 140, and 160 mg per g of paste. The corresponding doses for each group were 23, 29, 36, 40 and 45 mg of Lidocaine per kg.
Blood was collected from the saphenous vein over four weeks at 0, 0.25, 1, 4, 24, 48, 168 336, 504 and 672 hours after injection. Lidocaine concentrations in rat serum were determined using ultra high performance liquid chromatography tandem mass spectrometry (UHPLC-MS/MS). A non-compartmental analysis was then applied to each data set using Phoenix 64™ (Build 6.3.0.395) WinNonlin 63™ to determine relevant pharmacokinetic parameters.
Five groups of rats (male, Sprague Dawley) with six animals in each group received one injection of paste formulation (0.1 mL) subcutaneously in their flank. The paste formulation was based on a 50:50 mixture of PEG 300™ and PLGA. Lidocaine was incorporated into the paste at 80, 100, 120, 140, and 160 mg per g of paste. The corresponding doses for each group were 23, 29, 36, 40 and 45 mg of lidocaine per kg.

The conditions of data set [4]: single local injection, regional delivery of lidocaine; cited from earlier work.
Where [5] appears, read: PEG:PLGA 50:50 paste, docetaxel 4%, bicalutamide 4%, VPC-27 10%, FIG. 3A.
Where [6] appears, read: PEG:PLGA:Diblock 50:37:13, docetaxel 0.25%, bicalutamide 4%, VPC-27 4%, FIG. 5.
Where [7] appears, read: high diblock concentration (PEG:PLGA:Diblock 50:25:25), docetaxel 0.5%, FIG. 6D.
Setting [8] is: low diblock concentration (PEG:PLGA:Diblock 50:43:7), docetaxel 0.5%, FIG. 6A.
The mark [9] stands for this setting: PEG:PLGA:Diblock 50:37:13, lidocaine 8%, cephalexin 2%, ibuprofen 5%, FIG. 18.
Where [10] appears, read: PEG:PLGA:Diblock 50:37:13, lidocaine 10%, desoximetasone 1%, FIG. 14.
Where [11] appears, read: PEG:PLGA:Diblock 50:37:13, Tamsulosin 2% w/w, FIG. 17.

For the compound `CC(=O)O[C@@]12CO[C@@H]1C[C@H](O)[C@@]1(C)C(=O)[C@H](O)C3=C(C)[C@@H](OC(=O)[C@H](O)[C@@H](NC(=O)OC(C)(C)C)c4ccccc4)C[C@@](O)([C@@H](OC(=O)c4ccccc4)[C@H]21)C3(C)C` [docetaxel], in data set [1] (setting [5]), the “drug released, fast burst over 5 days” value is 10% and the “further encapsulated drug released over the next 40 days” value was found to be 20%. In data set [1] (PEG:PLGA 55:45 paste without diblock, docetaxel 1%, bicalutamide 4%, VPC-27 4%, FIG. 8), the “drug release on day 18” value was “around 10%”. The “drug released by day 50” value in data set [1] was “approximately 50%”. Besides, in data set [1] (setting [6]), the “drug released after one day” value turned out to be 24% and the “drug released on day 35” value is 32%. Further, the “drug release at day 8” value in data set [1] (PEG:PLGA:Diblock 50:37:13, docetaxel 1%, rapamycin 1%, VPC-27 4%, FIG. 9) is given as around 45%. In data set [1] (setting [7]), the “drug released on day 21” value came out at 78% and the “drug released, burst on day 1” value turned out to be 67%. Further, in data set [1] (setting [8]), the “drug released on day 21” value worked out at 34% and the “drug released, burst on day 1” value is 20%.
On to `CC(C)Cc1ccc(C(C)C(=O)O)cc1` (stereo not shown) [Ibuprofen], for which, in data set [1] (setting [9]), the “drug released by day 35” value is recorded as “approximately 70%” and the “drug released, burst release by day one” value came to 54%.
For `Nc1ccn([C@@H]2O[C@H](CO)[C@@H](O)C2(F)F)c(=O)n1` [gemcitabine], the “blockage of the ureter” value in data set [2] is recorded as “did not result in any blockage of the ureter”. In data set [2] (FIG. 25A), the “Gemcitabine levels in urine” value was “initially high and levelled off after 5-7 hours”. For the same compound, the Serum gemcitabine levels entry in data set [2] (FIG. 25B) is given as “very low, but detectable in all pigs”.
Turning to `CNC(=O)c1ccc(N2C(=S)N(c3ccc(C#N)c(C(F)(F)F)c3)C(=O)C2(C)C)cc1F` [enzalutamide], the “drug released by day 50” value in data set [1] is “approximately 40%”.
Consider `C[C@@H]1C[C@H]2[C@@H]3CCC4=CC(=O)C=C[C@]4(C)[C@@]3(F)[C@@H](O)C[C@]2(C)[C@H]1C(=O)CO` [desoximetasone], for which, in data set [1] (setting [10]), the “drug released by day 35” value was determined as 100% and the “drug released, burst within the first day” value is 50%.
As to `CCOc1ccccc1OCCN[C@H](C)Cc1ccc(OC)c(S(N)(=O)=O)c1` [Tamsulosin], in data set [1] (setting [11]), the “drug released by day 6” value was determined as 70%; the “drug released on day 21” value stood at 80%; the “drug released, burst phase on day 1” value was 47%.
Take `CCN(CC)CC(=O)Nc1c(C)cccc1C` [lidocaine]: the maximum serum concentration amounted to 557.26 ± 81.15 ng/mL in data set [3] (80 mg/g paste (PEG 300:PLGA 50:50), 23 mg/kg); 578.90 ± 162.59 ng/mL in data set [3] (100 mg/g paste (PEG 300:PLGA 50:50), 29 mg/kg); 638.03 ± 190.61 ng/mL in data set [3] (120 mg/g paste (PEG 300:PLGA 50:50), 36 mg/kg); 855.98 ± 196.18 ng/mL in data set [3] (140 mg/g paste (PEG 300:PLGA 50:50), 40 mg/kg); 1148.88 ± 838.97 ng/mL in data set [3] (160 mg/g paste (PEG 300:PLGA 50:50), 45 mg/kg). The “maximum concentrations detected in serum in each group” value in data set [3] (all studied strengths, below upper limit of therapeutic range) is on record as below 5000 ng/mL. In addition, the duration in data set [4] was 60 to 120 min. Besides, in data set [4], the onset is given as 3 min. Also, the “drug released by day 7” value was 88% in data set [1] (PEG:PLGA:Diblock 50:37:13, crescent shape); 92% in data set [1] (PEG:PLGA:Diblock 50:37:13, cylinder shape); “approximately 65%” in data set [1] (PEG:PLGA:Diblock 50:37:13, hemisphere shape). Also, the “drug released by day 35” value in data set [1] (setting [9]) is recorded as “approximately 70%”; in data set [1] (setting [10]) it was 80%. Besides, the “drug released, burst release by day one” value in data set [1] (setting [9]) amounted to 54%. Also, in data set [1] (setting [10]), the “drug released, burst within the first day” value is 50%. Further, the “drug released by day 18” value in data set [1] (all PEG:PLGA pastes without diblock (50:50, 55:45, 60:40), 8% lidocaine, FIG. 15) stood at 100%.
For `CC1=C(C(=O)O)N2C(=O)[C@@H](NC(=O)[C@H](N)c3ccccc3)[C@H]2SC1` [Cephalexin], the “drug release at 1 day” value in data set [1] (PEG:PLGA:Diblock 50:37:13, cephalexin between 2 and 19% loading, PBS without albumin, FIG. 10) is “almost all drug was released”. The “drug released, maximum on day 3” value in data set [1] (setting [9]) came out at 80%.
